The assay concerns BDF1 mice, B16 melanoma ip, median survival T/C. As to the kind of experiment: NCI In Vivo Anticancer Drug Screen. Data for tumor model B16 Melanoma (intraperitoneal) in B6D2F1 (BDF1) mice. Particulars: endpoint: median survival time, higher = longer survival. The method in brief: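 Vehicle-treated animals serve as the reference (C); treated animals (T) are scored for survival or tumor size after tumor transplantation.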

The mark [1] stands for this setting: dose: 25.0 mg/kg/injection, schedule: Q01DX009 (ip), vehicle: saline.
[2] abbreviates: dose: 50.0 mg/kg/injection, schedule: Q01DX009 (ip), vehicle: saline with Tween-80.
The mark [3] stands for this setting: dose: 100.0 mg/kg/injection, schedule: Q01DX009 (ip), vehicle: saline.
Where [4] appears, read: dose: 100.0 mg/kg/injection, schedule: Q04DX003 (ip), vehicle: saline.
[5] abbreviates: dose: 200.0 mg/kg/injection, schedule: Q04DX003 (ip), vehicle: saline.
[6] abbreviates: dose: 12.5 mg/kg/injection, schedule: Q01DX009 (ip), vehicle: Klucel (hydroxypropylcellulose) (HPC).
The mark [7] stands for this setting: dose: 50.0 mg/kg/injection, schedule: Q01DX009 (ip), vehicle: saline.

Molecules are shown by their SMILES. Several values for one entry are separate records, joined by “and”; a condition that tells them apart may be missing. Equal values may be shown once. Inconclusive results and toxic doses are left out.

On to `COc1cc2cc3c4cc(OC)c(OC)cc4cc[n+]3c(C)c2cc1OC` (tested in a mixture with another compound), for which the T/C was 106 % of control (dose: 6.25 mg/kg/injection, schedule: Q01DX009 (ip), vehicle: saline); 88 % of control (dose: 6.25 mg/kg/injection, schedule: Q04DX003 (ip), vehicle: saline with Tween-80); 107 % of control (dose: 6.25 mg/kg/injection, schedule: Q04DX003 (ip), vehicle: saline); 90 % of control and 91 % of control (dose: 8.0 mg/kg/injection, schedule: Q01DX009 (ip), vehicle: Klucel (hydroxypropylcellulose) (HPC)); 100 % of control and 109 % of control (dose: 8.0 mg/kg/injection, schedule: Q01DX009 (ip), vehicle: clinical formulation); 99 % of control and 107 % of control (dose: 8.0 mg/kg/injection, schedule: Q01DX009 (ip), vehicle: other). For the same molecule, the T/C reads like this: (dose: 8.0 mg/kg/injection, schedule: Q01DX009 (ip), vehicle: water) 87 % of control; (dose: 12.5 mg/kg/injection, schedule: Q01DX009 (ip), vehicle: saline) 93 % of control; (dose: 12.5 mg/kg/injection, schedule: Q01DX009 (ip), vehicle: water) 95 % of control; (dose: 12.5 mg/kg/injection, schedule: Q04DX003 (ip), vehicle: saline with Tween-80) 100 % of control; (dose: 12.5 mg/kg/injection, schedule: Q04DX003 (ip), vehicle: saline) 105 % of control; (dose: 16.0 mg/kg/injection, schedule: Q01DX009 (ip), vehicle: Klucel (hydroxypropylcellulose) (HPC)) 91 % of control and 92 % of control and 96 % of control. In addition, the T/C is 94 % of control and 106 % of control (dose: 16.0 mg/kg/injection, schedule: Q01DX009 (ip), vehicle: clinical formulation); 97 % of control and 111 % of control and 123 % of control (dose: 16.0 mg/kg/injection, schedule: Q01DX009 (ip), vehicle: other); 96 % of control and 106 % of control (dose: 16.0 mg/kg/injection, schedule: Q01DX009 (ip), vehicle: water); 87 % of control under setting [1]; 109 % of control (dose: 25.0 mg/kg/injection, schedule: Q01DX009 (ip), vehicle: water); 102 % of control (dose: 25.0 mg/kg/injection, schedule: Q04DX003 (ip), vehicle: saline with Tween-80). The T/C is, setting by setting: (dose: 25.0 mg/kg/injection, schedule: Q04DX003 (ip), vehicle: saline) 102 % of control; (dose: 32.0 mg/kg/injection, schedule: Q01DX009 (ip), vehicle: Klucel (hydroxypropylcellulose) (HPC)) 90 % of control and 93 % of control and 95 % of control; (dose: 32.0 mg/kg/injection, schedule: Q01DX009 (ip), vehicle: clinical formulation) 96 % of control and 105 % of control; (dose: 32.0 mg/kg/injection, schedule: Q01DX009 (ip), vehicle: other) 103 % of control and 105 % of control (2×); (dose: 32.0 mg/kg/injection, schedule: Q01DX009 (ip), vehicle: water) 94 % of control and 111 % of control; (dose: 33.0 mg/kg/injection, schedule: Q01DX009 (ip), vehicle: saline with Tween-80) 105 % of control. Besides, the T/C under setting [2] was 110 % of control; the T/C (dose: 50.0 mg/kg/injection, schedule: Q01DX009 (ip), vehicle: water) is 93 % of control; the T/C (dose: 50.0 mg/kg/injection, schedule: Q04DX003 (ip), vehicle: saline with Tween-80) is 97 % of control; the T/C (dose: 50.0 mg/kg/injection, schedule: Q04DX003 (ip), vehicle: saline) was 100 % of control; the T/C (dose: 64.0 mg/kg/injection, schedule: Q01DX009 (ip), vehicle: Klucel (hydroxypropylcellulose) (HPC)) is 89 % of control and 91 % of control and 94 % of control; the T/C (dose: 64.0 mg/kg/injection, schedule: Q01DX009 (ip), vehicle: clinical formulation) was 104 % of control. Also, the T/C reads like this: (dose: 64.0 mg/kg/injection, schedule: Q01DX009 (ip), vehicle: other) 100 % of control and 104 % of control; (dose: 75.0 mg/kg/injection, schedule: Q01DX009 (ip), vehicle: saline with Tween-80) 101 % of control; under setting [3], 106 % of control; (dose: 100.0 mg/kg/injection, schedule: Q01DX009 (ip), vehicle: water) 91 % of control; under setting [4], 94 % of control; (dose: 128.0 mg/kg/injection, schedule: Q01DX009 (ip), vehicle: Klucel (hydroxypropylcellulose) (HPC)) 91 % of control and 93 % of control. Also, the T/C (dose: 200.0 mg/kg/injection, schedule: Q04DX003 (ip), vehicle: saline with Tween-80) is 88 % of control and the T/C under setting [5] is 100 % of control.

Regarding `COc1ccc(Cl)cc1NC(=O)Nc1ccc(Cl)c(Cl)c1`, the T/C (dose: 18.75 mg/kg/injection, schedule: Q01DX009 (ip), vehicle: Klucel (hydroxypropylcellulose) (HPC)) was 96 % of control; the T/C (dose: 37.5 mg/kg/injection, schedule: Q01DX009 (ip), vehicle: Klucel (hydroxypropylcellulose) (HPC)) was 95 % of control; the T/C (dose: 75.0 mg/kg/injection, schedule: Q01DX009 (ip), vehicle: Klucel (hydroxypropylcellulose) (HPC)) is 90 % of control.

As to `N#CC(=C1C=CC(=NO)C=C1)c1ccccc1`, the T/C under setting [6] is 100 % of control; the T/C (dose: 50.0 mg/kg/injection, schedule: Q01DX009 (ip), vehicle: Klucel (hydroxypropylcellulose) (HPC)) is 112 % of control; the T/C (dose: 100.0 mg/kg/injection, schedule: Q01DX009 (ip), vehicle: Klucel (hydroxypropylcellulose) (HPC)) is 103 % of control.

`O=C(O)C1CCCN1CCc1ccccc1` (stereo not given): the T/C by setting is: under setting [4], 98 % of control; under setting [5], 103 % of control; (dose: 400.0 mg/kg/injection, schedule: Q04DX003 (ip), vehicle: saline) 102 % of control.

Turning to `Cc1cc(C)[nH]c(=O)n1`, the T/C under setting [1] was 115 % of control, the T/C under setting [7] is 101 % of control and the T/C under setting [3] is 102 % of control.

For `CCN(CC)Cc1ccccn1`, the T/C is 100 % of control under setting [1], 97 % of control under setting [7] and 100 % of control under setting [3].

`NNC(=O)c1ccc(Cl)cc1Cl`: the T/C is 100 % of control under setting [6]; 103 % of control (dose: 12.5 mg/kg/injection, schedule: Q04DX003 (ip), vehicle: Klucel (hydroxypropylcellulose) (HPC)); 86 % of control (dose: 25.0 mg/kg/injection, schedule: Q01DX009 (ip), vehicle: Klucel (hydroxypropylcellulose) (HPC)); 93 % of control (dose: 25.0 mg/kg/injection, schedule: Q04DX003 (ip), vehicle: Klucel (hydroxypropylcellulose) (HPC)).

On to `CCC(=O)N(C)[C@@H](C)C(=O)O[C@H]1CC(=O)N(C)c2cc(cc(OC)c2Cl)C/C(C)=C/C=C[C@@H](OC)[C@@]2(O)C[C@H](OC(=O)N2)[C@@H](C)[C@@H]2O[C@@]12C`, for which the T/C is, setting by setting: (dose: 2.5 micrograms/kg/injection, schedule: Q01DX009 (ip), vehicle: saline + alcohol) 156 % of control; (dose: 3.8 micrograms/kg/injection, schedule: Q01DX009 (ip), vehicle: saline + alcohol) 171 % of control; (dose: 5.0 micrograms/kg/injection, schedule: Q01DX009 (ip), vehicle: saline + alcohol) 167 % of control and 171 % of control; (dose: 7.5 micrograms/kg/injection, schedule: Q01DX009 (ip), vehicle: saline + alcohol) 191 % of control; (dose: 10.0 micrograms/kg/injection, schedule: Q01DX009 (ip), vehicle: saline + alcohol) 168 % of control and 181 % of control; (dose: 15.0 micrograms/kg/injection, schedule: Q01DX009 (ip), vehicle: saline + alcohol) 151 % of control and 196 % of control. For the same molecule, the T/C (dose: 30.0 micrograms/kg/injection, schedule: Q01DX009 (ip), vehicle: saline + alcohol) was 103 % of control.

For `COc1cc2c3c(c1)/C(=N\NC(N)=O)CCN3CCC2`, the T/C by setting is: (dose: 100.0 mg/kg/injection, schedule: Q04DX003 (ip), vehicle: Klucel (hydroxypropylcellulose) (HPC)) 97 % of control; (dose: 200.0 mg/kg/injection, schedule: Q04DX003 (ip), vehicle: Klucel (hydroxypropylcellulose) (HPC)) 100 % of control; (dose: 400.0 mg/kg/injection, schedule: Q04DX003 (ip), vehicle: Klucel (hydroxypropylcellulose) (HPC)) 100 % of control.

As for `OCC1OC(n2cnc3c(=S)nc[nH]c32)C(O)C1O` (stereo not given), the T/C was 102 % of control (dose: 12.5 mg/kg/injection, schedule: Q01DX009 (ip), vehicle: saline sonified); 105 % of control (dose: 25.0 mg/kg/injection, schedule: Q01DX009 (ip), vehicle: saline sonified); 105 % of control (dose: 50.0 mg/kg/injection, schedule: Q01DX009 (ip), vehicle: saline sonified); 104 % of control under setting [2]; 95 % of control and 100 % of control (dose: 100.0 mg/kg/injection, schedule: Q01DX009 (ip), vehicle: saline sonified); 104 % of control (dose: 100.0 mg/kg/injection, schedule: Q01DX009 (ip), vehicle: saline with Tween-80). Also, the T/C is 102 % of control (dose: 200.0 mg/kg/injection, schedule: Q01DX009 (ip), vehicle: saline sonified) and 100 % of control (dose: 200.0 mg/kg/injection, schedule: Q01DX009 (ip), vehicle: saline with Tween-80).
